Data reported in PubChem BioAssay (NCI).
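96-well plates; 48 h exposure; 5 concentrations. Endpoints by linear interpolation between flanking doses. Not reached: highest tested concentration assigned. GI50 marks 50% less growth. TGI: concentration producing complete growth inhibition.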

Legend:
Assay in all cases: growth of human tumour cells (NCI), 48 h
CAKI-1 renal = test system: CAKI-1 renal
K-562 leukemia = test system: K-562 leukemia
NCI-H23 lung = test system: NCI-H23 lung
M14 melanoma = test system: M14 melanoma
HS 578T breast = test system: HS 578T breast
786-0 renal = test system: 786-0 renal
MALME-3M melanoma = test system: MALME-3M melanoma
OVCAR-3 ovarian = test system: OVCAR-3 ovarian
SN12C renal = test system: SN12C renal
NCI-H226 lung = test system: NCI-H226 lung
MCF7 breast = test system: MCF7 breast
MDA-MB-435 = test system: MDA-MB-435
HCC-2998 colon = test system: HCC-2998 colon
SK-MEL-28 melanoma = test system: SK-MEL-28 melanoma
EKVX NSCLC = test system: EKVX NSCLC
MDA-MB-231 breast = test system: MDA-MB-231 breast
SF-295 CNS = test system: SF-295 CNS
SNB-75 CNS = test system: SNB-75 CNS
HOP-92 NSCLC = test system: HOP-92 NSCLC
PC-3 prostate = test system: PC-3 prostate
HT29 colon = test system: HT29 colon
SF-539 CNS = test system: SF-539 CNS
TK-10 renal = test system: TK-10 renal
SR leukemia = test system: SR leukemia
SF-268 CNS = test system: SF-268 CNS
NCI-H522 lung = test system: NCI-H522 lung
SNB-19 CNS = test system: SNB-19 CNS
UO-31 renal = test system: UO-31 renal
HCT-15 colon = test system: HCT-15 colon
OVCAR-8 ovarian = test system: OVCAR-8 ovarian
COLO 205 colon = test system: COLO 205 colon
HCT-116 colon = test system: HCT-116 colon
SK-OV-3 ovarian = test system: SK-OV-3 ovarian
IGROV1 ovarian = test system: IGROV1 ovarian
T-47D breast = test system: T-47D breast
DU-145 prostate = test system: DU-145 prostate
CCRF-CEM leukemia = test system: CCRF-CEM leukemia
HOP-62 NSCLC = test system: HOP-62 NSCLC
RPMI-8226 leukemia = test system: RPMI-8226 leukemia
RXF 393 renal = test system: RXF 393 renal
HL-60(TB) leukemia = test system: HL-60(TB) leukemia
OVCAR-5 ovarian = test system: OVCAR-5 ovarian
MOLT-4 leukemia = test system: MOLT-4 leukemia
MDA-MB-468 breast = test system: MDA-MB-468 breast
OVCAR-4 ovarian = test system: OVCAR-4 ovarian
KM12 colon = test system: KM12 colon
SK-MEL-2 melanoma = test system: SK-MEL-2 melanoma
SW-620 colon = test system: SW-620 colon
ACHN renal = test system: ACHN renal
UACC-257 melanoma = test system: UACC-257 melanoma
A549 NSCLC = test system: A549 NSCLC
NCI-H460 lung = test system: NCI-H460 lung
A498 renal = test system: A498 renal
U251 CNS = test system: U251 CNS
LOX IMVI melanoma = test system: LOX IMVI melanoma
SK-MEL-5 melanoma = test system: SK-MEL-5 melanoma
BT-549 breast = test system: BT-549 breast
UACC-62 melanoma = test system: UACC-62 melanoma

Which GI50 (CAKI-1 renal) does the source give for `O=C(c1ccc(Cl)cc1)C1[C@H](c2ccccc2Br)[C@@H](c2ccccc2)NC12C(=O)Nc1ccc(Cl)cc12` (stereo partly specified) here?
The GI50 was 8.96 µM.

What about the TGI (CAKI-1 renal) of the same compound?
Its TGI is 17.4 µM.

And the GI50 (K-562 leukemia)?
The GI50 was 18.5 µM.

What about the TGI (K-562 leukemia) of the same compound?
Its TGI is 52.8 µM.

And the GI50 (NCI-H23 lung)?
Its GI50 is 10.1 µM.

And the TGI (NCI-H23 lung)?
The TGI was 19.4 µM.

And the GI50 (M14 melanoma)?
The GI50 was 9.65 µM.

And the TGI (M14 melanoma)?
Its TGI is 18.3 µM.

What about the GI50 (HS 578T breast) of the same compound?
Its GI50 is 11 µM.

What about the TGI (HS 578T breast) of the same compound?
The TGI was 27.1 µM.

And the GI50 (786-0 renal)?
The GI50 was 9.38 µM.

What about the TGI (786-0 renal) of the same compound?
Its TGI is 18.8 µM.

And the GI50 (MALME-3M melanoma)?
Its GI50 is 8.67 µM.

And the TGI (MALME-3M melanoma)?
Its TGI is 16 µM.

And the GI50 (OVCAR-3 ovarian)?
The GI50 was 10.6 µM.

What about the TGI (OVCAR-3 ovarian) of the same compound?
Its TGI is 22.7 µM.

What about the GI50 (SN12C renal) of the same compound?
Its GI50 is 9.05 µM.

What about the TGI (SN12C renal) of the same compound?
The TGI was 16.4 µM.

What about the GI50 (NCI-H226 lung) of the same compound?
Its GI50 is 8.69 µM.

What about the TGI (NCI-H226 lung) of the same compound?
The TGI was 17.2 µM.

What about the GI50 (MCF7 breast) of the same compound?
The GI50 was 11.6 µM.

What about the TGI (MCF7 breast) of the same compound?
The TGI was 27.9 µM.

What about the GI50 (MDA-MB-435) of the same compound?
The GI50 was 10.4 µM.

And the TGI (MDA-MB-435)?
The TGI was 20.7 µM.

What about the GI50 (HCC-2998 colon) of the same compound?
The GI50 was 9.28 µM.

And the TGI (HCC-2998 colon)?
The TGI was 17.4 µM.

And the GI50 (SK-MEL-28 melanoma)?
The GI50 was 8.66 µM.

And the TGI (SK-MEL-28 melanoma)?
The TGI was 16 µM.

And the GI50 (EKVX NSCLC)?
The GI50 was 10.6 µM.

And the TGI (EKVX NSCLC)?
The TGI was 26 µM.

And the GI50 (MDA-MB-231 breast)?
Its GI50 is 8.98 µM.

What about the TGI (MDA-MB-231 breast) of the same compound?
Its TGI is 16.5 µM.

What about the GI50 (SF-295 CNS) of the same compound?
Its GI50 is 9.14 µM.

And the TGI (SF-295 CNS)?
The TGI was 18.9 µM.

What about the GI50 (SNB-75 CNS) of the same compound?
The GI50 was 8.31 µM.

What about the TGI (SNB-75 CNS) of the same compound?
The TGI was 26.9 µM.

What about the GI50 (HOP-92 NSCLC) of the same compound?
The GI50 was 8.37 µM.

And the TGI (HOP-92 NSCLC)?
The TGI was 16.3 µM.

What about the GI50 (PC-3 prostate) of the same compound?
The GI50 was 9.87 µM.

And the TGI (PC-3 prostate)?
Its TGI is 20.1 µM.

What about the GI50 (HT29 colon) of the same compound?
The GI50 was 9.35 µM.

And the TGI (HT29 colon)?
The TGI was 18.5 µM.

And the GI50 (SF-539 CNS)?
Its GI50 is 9.17 µM.

And the TGI (SF-539 CNS)?
The TGI was 17 µM.

And the GI50 (TK-10 renal)?
The GI50 was 8.71 µM.

What about the TGI (TK-10 renal) of the same compound?
Its TGI is 17 µM.

What about the GI50 (SR leukemia) of the same compound?
Its GI50 is 13.5 µM.

What about the TGI (SR leukemia) of the same compound?
The TGI was 32 µM.

And the GI50 (SF-268 CNS)?
The GI50 was 10.8 µM.

And the TGI (SF-268 CNS)?
Its TGI is 25.4 µM.

What about the GI50 (NCI-H522 lung) of the same compound?
Its GI50 is 8.67 µM.

And the TGI (NCI-H522 lung)?
The TGI was 16.6 µM.

What about the GI50 (SNB-19 CNS) of the same compound?
The GI50 was 10.3 µM.

What about the TGI (SNB-19 CNS) of the same compound?
Its TGI is 23.6 µM.

And the GI50 (UO-31 renal)?
The GI50 was 8.01 µM.

What about the TGI (UO-31 renal) of the same compound?
Its TGI is 15.1 µM.

What about the GI50 (HCT-15 colon) of the same compound?
Its GI50 is 10.2 µM.

And the TGI (HCT-15 colon)?
Its TGI is 20 µM.

And the GI50 (OVCAR-8 ovarian)?
Its GI50 is 9.6 µM.

What about the TGI (OVCAR-8 ovarian) of the same compound?
Its TGI is 18 µM.

And the GI50 (COLO 205 colon)?
Its GI50 is 9.34 µM.

What about the TGI (COLO 205 colon) of the same compound?
The TGI was 17.3 µM.

What about the GI50 (HCT-116 colon) of the same compound?
The GI50 was 9 µM.

And the TGI (HCT-116 colon)?
The TGI was 17.5 µM.

What about the GI50 (SK-OV-3 ovarian) of the same compound?
The GI50 was 12.4 µM.

And the TGI (SK-OV-3 ovarian)?
Its TGI is 34.4 µM.

What about the GI50 (IGROV1 ovarian) of the same compound?
The GI50 was 9.73 µM.

And the TGI (IGROV1 ovarian)?
Its TGI is 19.1 µM.

What about the GI50 (T-47D breast) of the same compound?
The GI50 was 9.06 µM.

And the TGI (T-47D breast)?
The TGI was 18.2 µM.

And the GI50 (DU-145 prostate)?
Its GI50 is 11.1 µM.

What about the TGI (DU-145 prostate) of the same compound?
The TGI was 22.4 µM.

And the GI50 (CCRF-CEM leukemia)?
The GI50 was 13.6 µM.

And the TGI (CCRF-CEM leukemia)?
The TGI was 35.1 µM.

What about the GI50 (HOP-62 NSCLC) of the same compound?
The GI50 was 8.65 µM.

What about the TGI (HOP-62 NSCLC) of the same compound?
The TGI was 16.4 µM.

What about the GI50 (RPMI-8226 leukemia) of the same compound?
Its GI50 is 15.9 µM.

What about the TGI (RPMI-8226 leukemia) of the same compound?
The TGI was 48.8 µM.

What about the GI50 (RXF 393 renal) of the same compound?
The GI50 was 8.4 µM.

What about the TGI (RXF 393 renal) of the same compound?
The TGI was 16 µM.

What about the GI50 (HL-60(TB) leukemia) of the same compound?
Its GI50 is 13.2 µM.

And the TGI (HL-60(TB) leukemia)?
The TGI was 36.7 µM.

And the GI50 (OVCAR-5 ovarian)?
Its GI50 is 8.61 µM.

And the TGI (OVCAR-5 ovarian)?
The TGI was 16 µM.

And the GI50 (MOLT-4 leukemia)?
Its GI50 is 16 µM.

And the TGI (MOLT-4 leukemia)?
The TGI was 52.8 µM.

And the GI50 (MDA-MB-468 breast)?
Its GI50 is 9.09 µM.

What about the TGI (MDA-MB-468 breast) of the same compound?
The TGI was 17.3 µM.

And the GI50 (OVCAR-4 ovarian)?
Its GI50 is 11.8 µM.

What about the TGI (OVCAR-4 ovarian) of the same compound?
Its TGI is 28.5 µM.

What about the GI50 (KM12 colon) of the same compound?
The GI50 was 11.5 µM.

And the TGI (KM12 colon)?
The TGI was 25.2 µM.

What about the GI50 (SK-MEL-2 melanoma) of the same compound?
The GI50 was 9.22 µM.

And the TGI (SK-MEL-2 melanoma)?
Its TGI is 16.9 µM.

What about the GI50 (SW-620 colon) of the same compound?
The GI50 was 9.58 µM.

And the TGI (SW-620 colon)?
Its TGI is 19.2 µM.

What about the GI50 (ACHN renal) of the same compound?
The GI50 was 9.94 µM.

What about the TGI (ACHN renal) of the same compound?
The TGI was 18.9 µM.

What about the GI50 (UACC-257 melanoma) of the same compound?
The GI50 was 8.88 µM.

And the TGI (UACC-257 melanoma)?
The TGI was 16.7 µM.

And the GI50 (A549 NSCLC)?
The GI50 was 9.83 µM.

And the TGI (A549 NSCLC)?
Its TGI is 20.2 µM.

What about the GI50 (NCI-H460 lung) of the same compound?
Its GI50 is 9.54 µM.

What about the TGI (NCI-H460 lung) of the same compound?
The TGI was 18.9 µM.

And the GI50 (A498 renal)?
Its GI50 is 9.4 µM.

And the TGI (A498 renal)?
The TGI was 19.3 µM.

And the GI50 (U251 CNS)?
Its GI50 is 9.17 µM.

What about the TGI (U251 CNS) of the same compound?
Its TGI is 16.8 µM.

And the GI50 (LOX IMVI melanoma)?
Its GI50 is 9.69 µM.

And the TGI (LOX IMVI melanoma)?
The TGI was 19 µM.

And the GI50 (SK-MEL-5 melanoma)?
The GI50 was 9.44 µM.

What about the TGI (SK-MEL-5 melanoma) of the same compound?
The TGI was 16.9 µM.

What about the GI50 (BT-549 breast) of the same compound?
The GI50 was 7.87 µM.

What about the TGI (BT-549 breast) of the same compound?
The TGI was 15.7 µM.

And the GI50 (UACC-62 melanoma)?
The GI50 was 8.63 µM.

And the TGI (UACC-62 melanoma)?
The TGI was 16 µM.
